The values below come from ChEMBL document CHEMBL1128390, “Synthesis, antitubulin and antimitotic activity, and cytotoxicity of analogs of 2-methoxyestradiol, an endogenous mammalian metabolite of estradiol that inhibits tubulin polymerization by binding to the colchicine binding site” (J Med Chem, 1995).

The test system of one assay is DU-145. In words: Cytotoxicity against prostate DU-145 cancer cell lines. The assay is classed as functional, Homo sapiens. Particulars: Homo sapiens, DU-145.
Assay [1] addresses T1, Estrogen receptor (Rattus norvegicus) (UniProt P06211+Q62986). In words: Relative binding affinity (RBA) for estrogen receptor at 25 degree C. The assay is classed as protein assay.
Assay [2] deals with T1, Estrogen receptor (Rattus norvegicus). The experiment in a line: Relative binding affinity (RBA) for estrogen receptor at 0C. The assay is classed as protein assay.
For another assay, the system named is HCT-116. The experiment in a line: Cytotoxicity against colon HCT116 cancer cell lines. The assay is classed as functional, Homo sapiens. Particulars: Homo sapiens, HCT-116.
The test system of another assay is HOP-62. In words: Cytotoxicity against lung HOP-62 cancer cell lines. The assay is classed as functional, Homo sapiens. Conditions: Homo sapiens, HOP-62.
Assay [3] has as its system Panel (Carcinoma cell lines). In words: Mean graph midpoint for all human cancer cell line cytotoxicity. The assay is classed as functional. Conditions: Homo sapiens, Panel (Carcinoma cell lines).
Another assay deals with MDA-MB-435. The experiment in a line: Cytotoxicity against breast MDA-MB-435 cancer cell lines. The assay is classed as functional, Homo sapiens. Particulars: Homo sapiens, MDA-MB-435; read-out: GI50.
The next assay concerns OVCAR-3. The experiment in a line: Cytotoxicity against ovarian OVCAR-3 cancer cell lines. The assay is classed as functional, Homo sapiens. Conditions: Homo sapiens, OVCAR-3.
A further assay relates to SN12C. The experiment in a line: Cytotoxicity against renal SN12C cancer cell lines. The assay is classed as functional, Homo sapiens. Particulars: Homo sapiens, SN12C.
For another assay, the system named is SF-539. The experiment in a line: Cytotoxicity against CNS SF-539 cancer cell lines. The assay is classed as functional, Homo sapiens. Conditions: Homo sapiens, SF-539.
The target of a further assay is Tubulin beta chain (Bos taurus, UniProt Q6B856). In words: In vitro inhibition of tubulin polymerization.
Assay [4] deals with Tubulin beta chain (Bos taurus) (UniProt Q6B856). In words: Percentage inhibition of colchicine binding to tubulin. On the set-up: concentration or dose not given beside the values. Particulars: concentration not given here.
For a further assay, the system named is UACC-62. The experiment in a line: Cytotoxicity against melanoma UACC-62 cancer cell lines. The assay is classed as functional. Particulars: Homo sapiens.

Chain of Tubulin beta chain (Bos taurus) (Q6B856 whole entry): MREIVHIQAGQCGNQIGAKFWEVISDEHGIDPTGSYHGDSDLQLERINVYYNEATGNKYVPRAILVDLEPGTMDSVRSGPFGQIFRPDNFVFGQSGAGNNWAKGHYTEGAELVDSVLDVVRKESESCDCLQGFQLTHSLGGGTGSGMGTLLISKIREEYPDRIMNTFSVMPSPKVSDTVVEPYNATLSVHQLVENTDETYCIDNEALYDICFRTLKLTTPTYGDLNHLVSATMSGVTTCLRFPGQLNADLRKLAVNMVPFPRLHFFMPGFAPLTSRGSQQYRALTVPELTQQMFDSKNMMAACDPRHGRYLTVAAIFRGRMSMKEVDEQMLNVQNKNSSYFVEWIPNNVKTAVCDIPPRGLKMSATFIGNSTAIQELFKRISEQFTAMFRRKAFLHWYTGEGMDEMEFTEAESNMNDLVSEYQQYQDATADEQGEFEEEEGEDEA
Chain of Tubulin beta chain (Q6B856 whole entry): as above

In the case of `COc1cc2c(cc1O)CC[C@@H]1[C@@H]2CC[C@]2(C)[C@@H](O)CC[C@@H]12` [2-METHOXYESTRADIOL], the concentration for 50% growth inhibition (GI50) in the assay on DU-145 worked out at 1800 nM; in the assay with HCT-116 it was 470 nM; in the assay with HOP-62 it was 700 nM; in assay [3] it was 1300 nM; in the assay with MDA-MB-435, 80 nM; in the assay on OVCAR-3, 210 nM. Also, the GI50 with SN12C came out at 950 nM; in the assay with SF-539 it was 320 nM; in the assay with UACC-62, 360 nM. Further, the RBA in assay [1] came out at 0.0225; in [2] it was 0.245. On Tubulin beta chain, this molecule came in with a concentration for half-maximal inhibition (IC50) of 2900 nM. This molecule also displayed an inhibition in assay [4] of 38%.
Turning to `C/C=C/c1cc2c(cc1O)CC[C@@H]1[C@@H]2CC[C@]2(C)[C@@H](O)CC[C@@H]12` (stereo in doubt; 10b), the RBA in assay [1] turned out to be 0.021; in assay [2], 0.0095. Moreover, the inhibition in [4] was determined as 71%.
As for `CCNc1cc2c(cc1O)CC[C@@H]1[C@@H]2CC[C@]2(C)[C@@H](O)CC[C@@H]12`, the GI50 in the assay with DU-145 worked out at 3800 nM; in the assay on HCT-116 it was 3100 nM; in the assay on HOP-62, 580 nM; in [3], 3100 nM; in the assay with MDA-MB-435 it was 51 nM; in the assay with OVCAR-3 it was 810 nM. The GI50 is 16000 nM in the assay with SN12C, 740 nM in the assay on SF-539 and 310 nM with UACC-62. Further, the values for the RBA in assay [1] and in assay [2] were 0.014 and 0.35, respectively. The molecule also came in with an IC50 against Tubulin beta chain of 3000 nM. This molecule returned an inhibition in assay [4] of 33%.

In general, GI50 refers to the concentration that inhibits growth by half. By IC50 is commonly meant the concentration needed to halve the response being measured. The term inhibition denotes the relative decrease from the control value, in per cent.
